Assay results taken from patent US10000498B2, “Selective proton coupled folate transporter and folate receptor, and GARFTase inhibitor compounds and methods of using the same” (Duquesne University of the Holy Spirit, priority 2008, dated 2018).
Entries after “also recorded” stand apart in the source; their conditions may differ. Like-named read-outs stand apart in the source and are kept apart here.

Experiments:
[1] = test system: PC43-10 cells (hRFC-expressing Chinese hamster ovary); test: Growth inhibition of hRFC-expressing PC43-10 CHO cells; format: cell-based
[2] = test system: RT16 cells (hFRα-expressing Chinese hamster ovary); test: Growth inhibition of FR-expressing RT16 CHO cells, with or without folic acid; format: cell-based; details: for IC50: Cricetulus griseus
[3] = test system: KB human tumor cells (hRFC/FRα); test: Growth inhibition of KB human tumor cells (Cell Titer-blue cytotoxicity screen), with or without folic acid; format: cell-based; details: for IC50: Homo sapiens
[4] = molecular target: T1, purified recombinant mouse GARFTase (Mus musculus, UniProt Q64737); test: In vitro GARFTase inhibition assay; format: biochemical
T1 sequence (Q64737 2-1010 limits assumed): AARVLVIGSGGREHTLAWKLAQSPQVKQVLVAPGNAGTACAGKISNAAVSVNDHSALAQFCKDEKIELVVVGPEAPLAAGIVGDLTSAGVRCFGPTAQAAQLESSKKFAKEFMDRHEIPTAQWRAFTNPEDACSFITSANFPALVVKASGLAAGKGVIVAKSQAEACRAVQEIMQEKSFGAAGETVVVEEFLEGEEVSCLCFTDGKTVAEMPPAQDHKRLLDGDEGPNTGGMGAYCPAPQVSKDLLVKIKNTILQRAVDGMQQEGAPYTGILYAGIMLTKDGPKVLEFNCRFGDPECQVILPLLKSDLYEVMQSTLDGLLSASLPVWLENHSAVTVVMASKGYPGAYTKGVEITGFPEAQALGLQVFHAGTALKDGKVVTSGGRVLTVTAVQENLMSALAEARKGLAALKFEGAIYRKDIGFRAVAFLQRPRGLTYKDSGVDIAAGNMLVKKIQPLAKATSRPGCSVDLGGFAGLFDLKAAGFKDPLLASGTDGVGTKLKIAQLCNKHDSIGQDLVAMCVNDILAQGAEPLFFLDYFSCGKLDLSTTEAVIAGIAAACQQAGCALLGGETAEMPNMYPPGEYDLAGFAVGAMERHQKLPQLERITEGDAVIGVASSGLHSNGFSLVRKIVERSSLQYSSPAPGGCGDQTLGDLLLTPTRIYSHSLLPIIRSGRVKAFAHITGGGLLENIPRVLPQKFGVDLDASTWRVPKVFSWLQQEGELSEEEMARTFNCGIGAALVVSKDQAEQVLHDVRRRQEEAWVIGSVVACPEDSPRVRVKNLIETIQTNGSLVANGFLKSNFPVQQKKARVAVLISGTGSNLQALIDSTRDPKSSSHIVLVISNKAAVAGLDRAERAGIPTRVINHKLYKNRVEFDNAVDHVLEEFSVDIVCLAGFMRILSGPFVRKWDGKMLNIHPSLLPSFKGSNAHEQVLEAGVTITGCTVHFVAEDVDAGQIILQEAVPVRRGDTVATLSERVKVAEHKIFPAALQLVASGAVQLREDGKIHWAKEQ

[5] = molecular target: T2, GARFTase (Homo sapiens, UniProt P22102); test: In situ GARFTase assay (14C-glycine incorporation into formyl glycinamide ribonucleotide); format: cell-based; details: mean IC50, SEM in parentheses
T2 construct: In the in situ GARFTase assay, incorporation of ^14C-glycine into formyl glycinamide ribonucleotide was measured; endogenous in cells
T2 sequence (P22102 1-1010): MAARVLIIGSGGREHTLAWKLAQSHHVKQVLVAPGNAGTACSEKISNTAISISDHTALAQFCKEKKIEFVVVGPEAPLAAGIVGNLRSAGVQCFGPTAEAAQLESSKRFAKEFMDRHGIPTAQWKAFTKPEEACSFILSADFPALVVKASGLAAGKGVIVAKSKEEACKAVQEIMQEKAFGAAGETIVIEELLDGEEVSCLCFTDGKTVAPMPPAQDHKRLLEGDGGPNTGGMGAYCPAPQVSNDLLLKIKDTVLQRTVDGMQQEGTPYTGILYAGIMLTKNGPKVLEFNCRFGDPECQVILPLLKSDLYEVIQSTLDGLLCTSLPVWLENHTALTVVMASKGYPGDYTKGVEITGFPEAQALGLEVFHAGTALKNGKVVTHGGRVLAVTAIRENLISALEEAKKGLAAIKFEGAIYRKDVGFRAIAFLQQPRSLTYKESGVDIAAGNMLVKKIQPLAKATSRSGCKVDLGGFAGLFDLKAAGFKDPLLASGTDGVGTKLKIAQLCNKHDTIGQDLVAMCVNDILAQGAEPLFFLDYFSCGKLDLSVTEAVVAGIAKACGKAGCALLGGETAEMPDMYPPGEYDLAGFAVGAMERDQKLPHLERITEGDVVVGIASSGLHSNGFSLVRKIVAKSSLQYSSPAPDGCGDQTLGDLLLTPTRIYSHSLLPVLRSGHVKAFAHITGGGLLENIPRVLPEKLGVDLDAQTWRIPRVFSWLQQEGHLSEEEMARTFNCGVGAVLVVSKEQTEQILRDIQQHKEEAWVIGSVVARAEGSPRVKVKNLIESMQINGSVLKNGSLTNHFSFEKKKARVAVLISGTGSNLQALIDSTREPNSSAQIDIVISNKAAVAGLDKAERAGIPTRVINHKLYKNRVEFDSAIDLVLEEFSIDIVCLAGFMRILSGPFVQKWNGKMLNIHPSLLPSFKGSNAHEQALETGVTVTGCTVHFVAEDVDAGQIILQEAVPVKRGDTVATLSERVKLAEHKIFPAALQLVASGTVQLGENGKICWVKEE

[6] = test system: R2/VC cells (vector control R2 CHO); test: Growth inhibition of vector control R2 CHO cells (Cell TiterBlue, 96 h); format: cell-based, Chinese hamster; details: Cricetulus griseus, read-out: Growth inhibition 50% inhibitory concentration, R2/VC
[7] = molecular target: FRα (Homo sapiens, UniProt P15328); test: FRα binding affinity relative to folic acid; details: folic acid set to 1
Chain of FRα (P15328 25-234): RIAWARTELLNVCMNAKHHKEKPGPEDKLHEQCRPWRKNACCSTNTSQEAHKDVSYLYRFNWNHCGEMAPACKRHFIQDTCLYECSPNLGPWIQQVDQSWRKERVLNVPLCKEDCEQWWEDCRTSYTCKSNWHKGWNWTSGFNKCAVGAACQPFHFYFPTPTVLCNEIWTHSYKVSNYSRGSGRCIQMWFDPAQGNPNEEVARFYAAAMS

[8] = test system: human KB cervical tumors as xenografts; test: In vivo evaluation in advanced stage KB tumor xenograft; set-up: species or system SCID female mice
Experimental: SCID female mice bearing advanced stage human KB cervical tumors as xenografts (xenograft tumors) were administered compound AAG154353 of the present invention intravenously at various doses and schedules.
Mice were maintained on a Folic Acid deficient diet (Harlan-Teklad Diet #00434; Madison, Wis.) exclusively for approximately three weeks at the start of treatment. […] Thus, significant antitumor activity was detected. Toxicity as reflected in weight loss was modest.

[9] = test system: KB cells; test: Nucleoside/AICA protection from growth inhibition in KB cells; format: cell-based, human
[10] = Q2dx4 starting day 43, 500 mg/kg total dose IV

Nc1nc2[nH]c(CCCCc3ccc(C(=O)N[C@@H](CCC(=O)O)C(=O)O)s3)cc2c(=O)[nH]1 [AAG154353, (S)-2-({5-[4-(2-amino-4-oxo-4,7-dihydro-3H-pyrrolo[2,3-d]pyrimidin-6-yl)-butyl]thiophene-2-carbonyl}-amino)-pentanedioic acid]
Growth inhibition of hRFC-expressing PC43-10 cells (in words) [1]: Neither AAG154353 and AAG154360 showed appreciable growth inhibition; also recorded: nearly complete lack of drug activity | IC50 ([1]; Cricetulus griseus, PC43-10, read-out: Growth inhibition (IC50, nM) hRFC PC43-10): > 1000 nM | Growth inhibition / FR-targeted activity toward RT16 cells (in words) [2]: high level of FR-targeted activity | IC50 ([2]; RT16, read-out: Growth inhibition (IC50, nM) hFRα RT16): 2 nM | IC50 ([2]; RT16, read-out: Growth inhibition (IC50, nM) hFRα RT16 (+FA)): > 1000 nM | Effect of folic acid co-treatment on growth inhibition of KB cells [3]: completely reversed growth inhibition | IC50 ([3]; read-out: Growth inhibition (IC50, nM) hRFC/FRα KB): 0.25 nM | IC50 ([3]; read-out: Growth inhibition (IC50, nM) hRFC/FRα KB (+FA)): > 1000 nM | IC50 [4]: 0.06 µM | IC50 [5]: 0.00063 µM | IC50 [6]: > 1 µM | FRα binding affinity compared to folic acid [7]: very high binding affinities | Tumor response of late stage KB xenografts ([8]; IV, three mice on various dose/schedules, tumors 446 to 650 mg at start, folic acid deficient diet): tumors regressed completely | Toxicity as reflected in weight loss ([8]; IV, various dose/schedules): modest | Tumor size [8, 10]: 63 mg | Tumor-free status [8, 10]: tumor free up to day 60 | Time mouse tumor free ([8]; Q3dx4 starting day 37, 750 mg/kg total dose IV): 30 days | Time mouse tumor free ([8]; Q4dx3 starting day 48, 187.5 mg/kg total dose IV): 30 days | Effect of 5-amino-4-imidazolecarboxamide (AICA) on growth inhibition of KB cells ([9]; AICA 320 μM): completely protected | Effect of adenosine on growth inhibition of KB cells ([9]; adenosine 60 μM): completely protective | Effect of thymidine on growth inhibition of KB cells ([9]; thymidine 10 μM): did not alter the growth inhibitory effects
